Data as given in patent US20240024273A1, “TOPICAL ADMINISTRATION OF 2-(DIETHYLAMINO)ETHYL 2-(4-ISOBUTYLPHENYL)PROPRIONATE FOR TREATMENT OF DISEASES” (TECHFIELDS PHARMA CO., LTD., priority 2020, published 2024).
Read-outs that look alike come from different tables or passages of the source.

Assays:
[1] = test system: Adjuvant-induced arthritis; assay: Adjuvant-induced arthritis; assay type: in vivo, Lewis rats; conditions: 10, 30 and 90 mg/kg daily, topical
[2] = test system: Acetic Acid Induced Pain; assay: Acetic acid induced pain (writhing); assay type: in vivo, ICR mice
[3] = Acute dermal maximum tolerated dose study; assay type: in vivo, Rats; conditions: both sexes, rat, in vivo, topical or ocular, 1000 mg/kg; once, dermal; male and female rats
[4] = test system: rats; assay: Acute dermal maximum tolerated dose study; assay type: in vivo; conditions: single dermal dose 1000 mg/kg
[5] = Acute maximum tolerated dose study, dermal; design: species or system Beagle dogs; conditions: beagle, dog, in vivo, topical or ocular; dermal application
[6] = Battery of nonclinical pharmacology and toxicology studies (overall); conditions: in vivo
Text: A battery of pharmacology and toxicology studies including a GLP acute dermal maximum tolerated dose study in rats, a GLP acute dermal maximum tolerated dose study in Beagle dogs, a non-GLP 14-day repeated dermal dose toxicity study in rats, a non-GLP 14-day repeated dermal dose toxicity study in Beagle dogs, a 28-day GLP repeated dermal dose toxicity and toxicokinetics study in rats with 14-day recovery, a 28-day GLP repeated dermal dose toxicity and toxicokinetics study in Beagle dogs with 14-day recovery, a GLP bacterial reverse mutation assay (Ames), a GLP in vitro chromosome aberration assay in CHO-WBL Cells, a GLP in vivo bone marrow micronucleus assay in rats, a behavioral effects in rats using the functional observational battery, a rat respiratory safety pharmacology study, a cardiovascular telemetry study in the unrestrained conscious non-naïve dog, a skin irritation study in rabbits, a study on embryo-fetal development in rats, a 39-week GLP repeated dermal dose toxicity and toxicokinetics study in mini pigs with 4-week recovery, a 26-week GLP repeated dermal dose toxicity and toxicokinetics study in rats with 4-week recovery, a study on fertility and early embryonic development to implantation in rats, a study on embryo-fetal development in rabbits, and a sensitization test in guinea pigs were conducted.

[7] = Phase 1 clinical study: plasma pharmacokinetics of prodrug and ibuprofen; assay type: in vivo, human; conditions: for AUC0-12: read-out: prodrug AUC0-12; for AUC(0-t): read-out: prodrug AUClast; for Cmax: read-out: prodrug Cmax; for Tmax: read-out: prodrug Tmax, median (range); for half-life: read-out: prodrug t1/2 (converted)
Procedure: Following a 5-day washout period, 2-(diethylamino)ethyl 2-(4-isobutylphenyl)propionate was administered b.i.d. during Days 6-11, and a morning dose only was administered to Day 12. Blood samples were collected for PK analysis over the 120-hour post-dose period following the Day 12 dose. Additionally, pre-dose blood samples were collected on Day 7 through Day 11 to evaluate steady-state status.
The same study procedures were followed as described in Part 1.
For single dose PK, serial blood samples were collected on Day 1 dose at the following time points: 0 (pre-dose), 0.25, 0.5, 0.75, 1, 1.5, 2, 2.5, 3, 4, 5, 6, 8, 10, 12, 18, 24, 48, 72, 96 and 120 hours post-dose.
For multiple-dose PK, serial blood samples were collected on Day 12 at the following time points: 0 (pre-dose), 0.25, 0.5, 0.75, 1, 1.5, 2, 2.5, 3, 4, 5, 6, 8, 10, 12, 18, 24, 48, 72, 96 and 120 hours post-dose.
The relative bioavailability of the single dose 70 mg topical application vs. 70 mg spray application was determined based on AUCtau, AUCinf and Cmax. The 90% confidence intervals (CIs) on the ratio of topical application vs. spray application were calculated.

[8] = Second Phase 2 study: plasma ibuprofen pharmacokinetics; assay type: in vivo, human; conditions: low dose levels (below 35 mg/day)
Procedure: All subjects enrolled at designated sites that have the capability to keep subjects overnight will be included in the PK subgroup until PK samples for 40 subjects per treatment group have been collected. […] At the Week 12/EOS visit, PK blood samples can be collected predose and at 2, 4, and 6 hours postdose. Subjects will only receive the morning dose at the Week 12/EOS visit.
Thus only ibuprofen was analyzed in this trial.

[9] = human, plasma, topical or ocular, 17.5 mg, Day 1, 17.5 mg topical
[10] = human, plasma, topical or ocular, 17.5 mg, Day 12, 17.5 mg b.i.d. topical
[11] = human, plasma, topical or ocular, 35 mg, Day 1, 35 mg topical
[12] = human, plasma, topical or ocular, 35 mg, Day 12, 35 mg b.i.d. topical
[13] = human, plasma, topical or ocular, 70 mg, Day 1, 70 mg topical
[14] = human, plasma, topical or ocular, 70 mg, Day 12, 70 mg b.i.d. topical
[15] = human, plasma, topical or ocular, 140 mg, Day 1, 140 mg topical
[16] = human, plasma, topical or ocular, 140 mg, Day 12, 140 mg b.i.d. topical
[17] = human, plasma, topical or ocular, 280 mg, Day 1, 280 mg topical
[18] = human, plasma, topical or ocular, 280 mg, Day 12, 280 mg b.i.d. topical
[19] = human, plasma, topical, 70 mg, Day 1, 70 mg spray
[20] = human, plasma, topical, 70 mg, Day 12, 70 mg b.i.d. spray

CCN(CC)CCOC(=O)C(C)c1ccc(CC(C)C)cc1 (stereo not shown) [2-(diethylamino)ethyl 2-(4-isobutylphenyl)propionate]
arthritis [1]: significantly inhibited arthritis.
inhibitory effect compared with Vehicle ([2]; high dose): 2-(4-isobutylphenyl)propionate showed significant inhibitory effect
inhibitory effect ([2]; low dose): 2-(4-isobutylphenyl)propionate did not show any inhibitory effect in this
MTD [3]: > 1000 mg/kg
tolerability [4]: 2-(4-isobutylphenyl)propionate to rats at 1000 mg/kg was well tolerated
MTD [5]: ≥ 50 mg/kg
overall safety [6]: appeared to be safe and were generally well tolerated
dose proportionality of prodrug and ibuprofen Cmax and AUC0-last ([7]; 17.5 mg to 280 mg, single and multiple): did not increase in a dose-proportional manner
prodrug mean Cmax after 7 days b.i.d., increase ([7]; 140 mg and 280 mg doses): about 2 fold
prodrug Kel ([7]; Day 12, 17.5 mg b.i.d. topical): 0.0241 (N/A) 1/h
prodrug Kel ([7]; Day 12, 70 mg b.i.d. topical): 0.0656 (N/A) 1/h
prodrug Kel ([7]; Day 12, 140 mg b.i.d. topical): 0.0398 (N/A) 1/h
prodrug Kel ([7]; Day 12, 280 mg b.i.d. topical): 0.0374 (0.0310) 1/h
conversion of absorbed prodrug to ibuprofen ([7]; human, in vivo): > 99%
AUC0-12 [7, 9]: 0.837 ng·h/mL
AUC(0-t) [7, 9]: 1.45 ng·h/mL
Cmax [7, 9]: 0.158 ng/mL
Tmax [7, 9]: 8 h
AUC0-12 [7, 10]: 0.809 ng·h/mL
AUC(0-t) [7, 10]: 1.31 ng·h/mL
Cmax [7, 10]: 0.092 ng/mL
Tmax [7, 10]: 8 h
AUC0-12 [7, 11]: 0.34 ng·h/mL
AUC(0-t) [7, 11]: 0.864 ng·h/mL
Cmax [7, 11]: 0.0862 ng/mL
Tmax [7, 11]: 11 h
AUC0-12 [7, 12]: 1.21 ng·h/mL
AUC(0-t) [7, 12]: 2.29 ng·h/mL
Cmax [7, 12]: 0.153 ng/mL
Tmax [7, 12]: 5.12 h
AUC0-12 [7, 13]: 0.836 ng·h/mL
AUC(0-t) [7, 13]: 1.99 ng·h/mL
Cmax [7, 13]: 0.16 ng/mL
Tmax [7, 13]: 10 h
AUC0-12 [7, 14]: 1.1 ng·h/mL
AUC(0-t) [7, 14]: 1.49 ng·h/mL
Cmax [7, 14]: 0.162 ng/mL
Tmax [7, 14]: 3.5 h
AUC0-12 [7, 15]: 0.478 ng·h/mL
AUC(0-t) [7, 15]: 1.45 ng·h/mL
Cmax [7, 15]: 0.116 ng/mL
Tmax [7, 15]: 18 h
AUC0-12 [7, 16]: 1.82 ng·h/mL
AUC(0-t) [7, 16]: 3.6 ng·h/mL
Cmax [7, 16]: 0.305 ng/mL
Tmax [7, 16]: 2.5 h
AUC0-12 [7, 17]: 0.675 ng·h/mL
AUC(0-t) [7, 17]: 4.48 ng·h/mL
Cmax [7, 17]: 0.233 ng/mL
Tmax [7, 17]: 18 h
AUC0-12 [7, 18]: 3.71 ng·h/mL
AUC(0-t) [7, 18]: 11.6 ng·h/mL
Cmax [7, 18]: 0.505 ng/mL
Tmax [7, 18]: 0.25 h
half-life ([7]; human, plasma, topical or ocular, Day 12, 17.5 mg b.i.d. topical): 28.8 h
half-life ([7]; human, plasma, topical or ocular, Day 12, 70 mg b.i.d. topical): 10.6 h
half-life ([7]; human, plasma, topical or ocular, Day 12, 140 mg b.i.d. topical): 17.4 h
AUC(0-inf) ([7]; human, plasma, topical or ocular, Day 12, 280 mg b.i.d. topical, read-out: prodrug AUCinf): 18.1 ng·h/mL
half-life ([7]; human, plasma, topical or ocular, Day 12, 280 mg b.i.d. topical): 37.8 h
AUC0-12 [7, 19]: 0.514 ng·h/mL
AUC(0-t) [7, 19]: 0.947 ng·h/mL
Cmax [7, 19]: 0.119 ng/mL
Tmax [7, 19]: 10 h
AUC0-12 [7, 20]: 1.06 ng·h/mL
AUC(0-t) [7, 20]: 2.62 ng·h/mL
Cmax [7, 20]: 0.185 ng/mL
Tmax [7, 20]: 3 h
relative bioavailability of spray vs topical application (plasma ibuprofen) ([7]; single application, 70 mg): lower
time by which all subjects had measurable plasma prodrug levels ([7]; topical application): ≤ 3 hours post-dose
detectability of prodrug in plasma [8]: cannot be detected in most of subjects' plasma
